Inhibition and IC50 data for 39 compounds are collected here from patent US9422240B2, “Partially saturated nitrogen-containing heterocyclic compound” (TAISHO PHARMACEUTICAL CO., LTD, priority 2012, dated 2016).

Assay [1] deals with T1, human PHD2 (Homo sapiens (Human), UniProt Q9GZT9). As to the kind of experiment: Test 2: human PHD2 inhibitory activity, fluorescence polarization assay of HIF-1α peptide proline hydroxylation. The assay is classed as biochemical. Particulars: for inhibition at 1 µM: test compound's concentration 1 μM, Test 2, fluorescence polarization assay, read-out: Percent inhibition (% at 1 μM); for IC50: human PHD2, fluorescence polarization assay, 20-min incubation at 30° C. The method in brief:
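A 19-mer HIF-1α peptide served as substrate, with the reaction started by 40 ng/well human PHD2 (cell lysate of NM_022051-transfected cells) and run 20 min at 30° C. before EDTA stop. Hydroxylated product bound anti-HIF-OH antibody, read by fluorescence polarization versus no-compound control.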

Assay [2] has as its target T1, human PHD2. The assay can be described thus: Test 1: human PHD2 inhibitory activity, [14C]-2-oxoglutarate to [14C]-succinic acid radiometric assay with HIF-1α peptide. The assay is classed as biochemical. The note with it: test compound's concentration 1 μM; Test 1, [14C]-2-oxoglutarate radiometric assay; read-out: Percent inhibition (% at 1 μM). The method in brief: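 Activity was measured by radiometric counting of [14C]-succinic acid formed during prolyl hydroxylation of a 19-mer HIF-1α peptide, after DNPH removal of residual [14C]-2-oxoglutarate. Baculovirus-expressed human PHD2 lysate (4 μg/well) reacted for 15 min at 37° C. Substrate-free and compound-free wells served as reference points for inhibition.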

T1 sequence (Q9GZT9 whole entry): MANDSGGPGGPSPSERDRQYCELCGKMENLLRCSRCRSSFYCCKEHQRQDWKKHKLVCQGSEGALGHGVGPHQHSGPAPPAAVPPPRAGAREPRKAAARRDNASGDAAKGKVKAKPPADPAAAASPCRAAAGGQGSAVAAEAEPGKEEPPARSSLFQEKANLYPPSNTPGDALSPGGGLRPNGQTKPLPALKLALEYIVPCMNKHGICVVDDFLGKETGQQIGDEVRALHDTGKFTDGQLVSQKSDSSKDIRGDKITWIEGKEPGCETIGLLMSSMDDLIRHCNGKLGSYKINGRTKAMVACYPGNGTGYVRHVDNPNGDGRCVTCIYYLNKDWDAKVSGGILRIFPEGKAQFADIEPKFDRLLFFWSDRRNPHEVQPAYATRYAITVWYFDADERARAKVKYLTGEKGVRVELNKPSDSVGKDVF

On to `O=C(O)CNC(=O)C1=C(O)C2(CC2)CN(Cc2ccc(C3CC3)cc2)C1=O` [Ex. 1-214], for which the inhibition at 1 µM is 90% in assay [1] and 89% in assay [2].
Consider `O=C(O)CNC(=O)C1=C(O)C2(CC2)CN(Cc2ccc(Cl)cc2)C1=O` [Ex. 1-215], for which the results for the inhibition at 1 µM in assay [1] and in assay [2] were 86% and 85%, respectively.
For the compound `CC1(C)CC(O)=C(C(=O)NCC(=O)O)C(=O)N1Cc1cc(-c2ccc(Cl)cc2)on1` [Ex. 1-216], the inhibition at 1 µM was found to be 73% in assay [1] and 75% in assay [2].
As for `CC1(C)CC(O)=C(C(=O)NCC(=O)O)C(=O)N1CC1CC(c2ccccc2)C1` (centres unmarked) [Ex. 1-217], the inhibition at 1 µM in assay [1] stood at 60%; in assay [2], 52%.
The matching figures for `CC1(C)CC(O)=C(C(=O)NCC(=O)O)C(=O)N1C[C@H]1C[C@@H](c2ccccc2)C1` [Ex. 1-218]: 62% and 52%.
Regarding `O=C(O)CNC(=O)C1=C(O)CCN(C2(c3ccc(-c4ccccc4)cc3)CC2)C1=O` [Ex. 1-219], the results for the inhibition at 1 µM in assay [1] and in assay [2] were 88% and 69%, respectively.
As to `O=C(O)CNC(=O)C1=C(O)CCN(C2CCC(Cc3ccccc3)CC2)C1=O` (centres unmarked) [Ex. 1-220], the results for the inhibition at 1 µM in assay [1] and in assay [2] were 82% and 72%, respectively.
As to `CC1(C)CC(O)=C(C(=O)NCC(=O)O)C(=O)N1Cc1ccc(OCC(F)(F)F)cc1` [Ex. 1-221], the inhibition at 1 µM in assay [1] was found to be 73%; in assay [2] it was 66%.
The matching figures for `O=C(O)CNC(=O)C1=C(O)CCN(Cc2ccc(OCC(F)(F)F)c(Cl)c2)C1=O` [Ex. 1-222]: 89% and 90%.
Consider `O=C(O)CNC(=O)C1=C(O)CC2(CC2)N(Cc2ccc(-c3ccccc3)cc2)C1=O` [Ex. 1-223], for which the inhibition at 1 µM in assay [1] worked out at 96%; in assay [2] it was 90%.
As for `O=C(O)CNC(=O)C1=C(O)CC2(CC2)N(Cc2ccc(C(F)(F)F)cc2)C1=O` [Ex. 1-224], the figures for the inhibition at 1 µM in assay [1] and in assay [2] were 90% and 80%, respectively.
As for `N#Cc1ccc(Oc2ccc(CN3CCC(O)=C(C(=O)NCC(=O)O)C3=O)cn2)cc1` [Ex. 1-225], in assay [1], 40 nM corresponded to half-maximal inhibition (IC50) and the inhibition at 1 µM was determined as 98%. Also, the inhibition at 1 µM in assay [2] worked out at 100%.
`CCCOc1ccc(CN2C(=O)C(C(=O)NCC(=O)O)=C(O)CC2(C)C)cc1` [Ex. 1-227]: the inhibition at 1 µM in assay [1] was 75%; in assay [2], 76%.
On the same counts, the results for `CC(C)Oc1ccc(CN2C(=O)C(C(=O)NCC(=O)O)=C(O)CC2(C)C)cc1` [Ex. 1-228] are 64% and 71%.
On the same counts, the results for `CC1(C)CC(O)=C(C(=O)NCC(=O)O)C(=O)N1C[C@H]1C[C@@H]1c1ccccc1` [Ex. 1-229] are 60% and 74%.
Regarding `CC(c1ccc(-c2ccccc2)cc1)N1CCC(O)=C(C(=O)NCC(=O)O)C1=O` (centres unmarked) [Ex. 1-230], the inhibition at 1 µM came to 95% in assay [1] and 96% in assay [2].
On the same counts, the results for `CC(C)(c1ccc(C(F)(F)F)cc1)N1CCC(O)=C(C(=O)NCC(=O)O)C1=O` [Ex. 1-231] are 44% and 65%.
Regarding `CC(C)(C)COCc1ccc(CN2CCC(O)=C(C(=O)NCC(=O)O)C2=O)cc1` [Ex. 1-232], the results for the inhibition at 1 µM in assay [1] and in assay [2] were 91% and 89%, respectively.
On the same counts, the results for `CC1(COCc2ccc(CN3CCC(O)=C(C(=O)NCC(=O)O)C3=O)cc2)CC1` [Ex. 1-233] are 93% and 91%.
On the same counts, the results for `CCOc1ccc(CN2C(=O)C(C(=O)NCC(=O)O)=C(O)CC2(C)C)cc1` [Ex. 1-234] are 62% and 61%.
The matching figures for `O=C(O)CNC(=O)C1=C(O)CC2(CCC2)N(Cc2ccc(C3CC3)cc2)C1=O` [Ex. 1-236]: 87% and 84%.
As for `O=C(O)CNC(=O)C1=C(O)C2(CCC2)CN(Cc2ccc(C3CC3)cc2)C1=O` [Ex. 1-237], the inhibition at 1 µM was determined as 84% in assay [1] and 74% in assay [2].
As to `O=C(O)CNC(=O)C1=C(O)CCN(Cc2ccc(OCC3CCC3)cc2)C1=O` [Ex. 1-238], the values for the inhibition at 1 µM in assay [1] and in assay [2] were 99% and 92%, respectively.
On the same counts, the results for `CC1(C)CC(O)=C(C(=O)NCC(=O)O)C(=O)N1Cc1ccc(OCC2CCC2)cc1` [Ex. 1-239] are 87% and 74%.
On the same counts, the results for `O=C(O)CNC(=O)C1=C(O)CCN(Cc2ccc(OCc3ccccc3)cc2)C1=O` [Ex. 1-240] are 97% and 91%.
As for `O=C(O)CNC(=O)C1=C(O)CCN(Cc2ccc(OCc3ccc(F)cc3)cc2)C1=O` [Ex. 1-241], the inhibition at 1 µM in assay [1] amounted to 101%; in assay [2], 97%.
For the compound `O=C(O)CNC(=O)C1=C(O)CCN(Cc2ccc(OCc3ccc(Cl)cc3)cc2)C1=O` [Ex. 1-242], the inhibition at 1 µM in assay [1] came out at 101%; in assay [2], 100%.
On to `O=C(O)CNC(=O)C1=C(O)CCN(Cc2ccc(C3CCC3)c(C(F)(F)F)c2)C1=O` [Ex. 1-243], for which the figures for the inhibition at 1 µM in assay [1] and in assay [2] were 92% and 76%, respectively.
For `CC1(C)CC(O)=C(C(=O)NCC(=O)O)C(=O)N1C[C@@H]1C[C@@H]1c1ccccc1` [Ex. 1-244], the inhibition at 1 µM in assay [1] is 50%; in assay [2], 47%.
In the case of `O=C(O)CNC(=O)C1=C(O)CCN(Cc2ccc(C(F)(F)F)c(C3CCC3)c2)C1=O` [Ex. 1-245], the values for the inhibition at 1 µM in assay [1] and in assay [2] were 78% and 80%, respectively.
The matching figures for `CC1(C)CC(O)=C(C(=O)NCC(=O)O)C(=O)N1Cc1ccc(OCCC2CC2)cc1` [Ex. 1-247]: 82% and 81%.
The matching figures for `O=C(O)CNC(=O)C1=C(O)CCN(Cc2ccc(CCC3CC3)cc2)C1=O` [Ex. 1-249]: 94% and 103%.
Take `O=C(O)CNC(=O)C1=C(O)C2(CCC2)CN(Cc2ccc(OCC3CC3)cc2)C1=O` [Ex. 1-250]: the inhibition at 1 µM amounted to 81% in assay [1] and 80% in assay [2].
Regarding `O=C(O)CNC(=O)C1=C(O)CC2(CC2)N(Cc2ccc(OCC3CC3)cc2)C1=O` [Ex. 1-251], the results for the inhibition at 1 µM in assay [1] and in assay [2] were 83% and 90%, respectively.
On to `O=C(O)CNC(=O)C1=C(O)CCN(Cc2ccc(Oc3ccc(F)cc3)nc2)C1=O` [Ex. 1-252], for which, in assay [1], the IC50 amounted to 87 nM and the inhibition at 1 µM was 98%. Further, the inhibition at 1 µM in assay [2] was determined as 104%.
As for `O=C(O)CNC(=O)C1=C(O)CC2(CCCCC2)N(Cc2ccccc2)C1=O` [Ex. 1-253], the inhibition at 1 µM in assay [1] amounted to 49%; in assay [2], 45%.
Turning to `O=C(O)CNC(=O)C1=C(O)CCN(Cc2ccc(Oc3ccc(C(F)(F)F)cc3)nc2)C1=O` [Ex. 1-254], the midpoint of inhibition in assay [1], the IC50, lay at 24 nM. For the same compound, the inhibition at 1 µM stood at 96% in assay [1] and 103% in assay [2].
In assay [1], `Cc1cccc(Oc2ccc(CN3CCC(O)=C(C(=O)NCC(=O)O)C3=O)cn2)c1` [Ex. 1-255] registered a concentration for half-maximal inhibition (IC50) of 66 nM. Besides, the inhibition at 1 µM was determined as 90% in assay [1] and 99% in assay [2].
As for `O=C(O)CNC(=O)C1=C(O)CCN(Cc2ccc(Oc3cccc(F)c3)nc2)C1=O` [Ex. 1-256], in assay [1], half-maximal inhibition (IC50) required 66 nM and the inhibition at 1 µM came to 91%. Further, the inhibition at 1 µM in assay [2] amounted to 101%.
